{
  "source": "patent US20260347399A1",
  "about": "“BRAIN PENETRATING PEPTIDES AND METHODS OF USE” (priority 2022, published 2026)",
  "key": {"mouse brain [1]": {"system": "mouse brain", "experiment": "In vivo play-off screen with 10 published CNS homing peptide-phages", "conditions": "phage pool i.v., 1 h; acid and detergent perfusion", "description": "Play-off screen was carried out with 10 previously published BBB penetrating/CNS homing peptide-phages. […] Oligonucleotides were annealed and ligated into the phage genome using T7Select 415-1 cloning kit (Novagen) and the T7Select System Manual. Each peptide-phage was separately amplified in liquid bacterial culture, precipitated with PEG, recovered in PBS and titered. Phages were mixed in equimolar ratios and purified with CsCl-ultracentrifugation and dialysis. Titer of the play-off pool was determined and mice were intravenously injected with 1×10^10 pfu of phage pool. After one hour of circulation time, mice were perfused with acid buffer (500 mM NaCl, 0.1 M glycine, 1% BSA, pH2.5) and detergent buffer (1% NP40 in PBS), collected organs were homogenized and phage pools amplified for high-throughput sequencing.\nNovel BBB penetrating and CNS homing peptide was identified in a step by step process including a phage play-off screens, alanine scanning mutagenesis and phage display with unique library. The first selection step included a phage play-off screen with ten previously published CNS homing peptides (Table 5). To ensure collecting BBB penetrating and CNS homing peptides, phage play-off pool was intravenously (iv) injected into the mice and perfusion was done with acid and detergent buffers to remove unbound phages and brake the endothelial layer of blood vessels. […]"}, "mouse brain [2]": {"system": "mouse brain", "experiment": "In vivo phage display with CX4CYX library", "description": "In vivo phage display with CX4CYX library was performed in three selection rounds. Phage library was injected intravenously to Balb/c mice and allowed to circulate for one hour. After circulation, the animals were anesthetized and perfused intracardially with acid and detergent buffers. Brain and control organs were collected and homogenized in 1% NP40-LB. Bound phages were rescued by amplification in E. coli and their genomic DNA was sequenced by Ion Torrent next generation DNA sequencing system.\nA novel phage library CX4CYX was constructed based on the alanine-leucine screen to find new brain homing peptides). This knowledge directed us to construct a novel phage library CX4CYX (X—any amino acid), where Cys1, Cys6 and Tyr7 remained in their intact positions, and the four amino acid variable-domain laid between the cysteines, and one amino acid variability after Tyr7. Three rounds of phage bio-panning was performed to allow enrichment of peptides in the brain. Again acid and detergent buffers were used for perfusion to remove non-specifically bound phages from the brain after systemic administration of phage library (round 1) and recovered brain phage pools (round 2 and 3). HTS reads from round 1 to round 3 indicated decent enrichment of in-frame peptides in the brain (Table 6)."}, "activated microglia": {"system": "activated microglia", "experiment": "FAM-CVG colocalization with activated microglia in glioma", "type": "in vivo, mouse", "conditions": "FAM-labelled, i.v., 1 h; WT GBM, glioma edge and core", "description": "WT GBM glioma-bearing mice were injected iv with FAM-labelled CVG peptide for 1 hour circulation. Mice were perfused and tissues of interest were snap-frozen in the vapor of liquid nitrogen. Immunofluorescent staining was carried out with the following antibodies: FAM, CD68, CD11b and CD206."}, "mouse brain [3]": {"system": "mouse brain", "experiment": "In vivo play-off of alanine-scan peptide-phages", "conditions": "5×10^9 pfu phage mix i.v., 1 h, HTS", "description": "To determine which amino acid positions are important for brain homing of Cerepep, in vivo play-off method was used. A pool of T7 peptide-phages was created, where each amino acid of Cerepep sequence was changed one-by-by to alanine and alanines were changed to leucines. These clones, original Cerepep peptide-phage clone and control insertless phage were mixed in equimolar ratio and 5×10^9 pfu of phage mix was injected i.v. into male Balb/C mice (n=2). Following 1 h circulation the animals were anesthetized and perfused with PBS. The prevalence of phage clones in the brain was determined by high throughput sequencing.\nTo determine which amino acid positions are important for brain homing of SERVISRAKLAAAL (SEQ ID NO:9), a pool of peptide-phage clones was compiled, where every amino acid position was one-by-one changed to alanine (alanines were changed to leucines). […] The phage mix was injected into mice and following a 1 h circulation the amount of different phage clones in the brain was determined using HTS. […]\nBased on studies involving in vivo play-off analyses, it was determined that Arginines and isoleucine are crucial for the brain homing of Cerepep (CP) peptide. Every position of CP peptide was one-by one mutated to alanine (alanines were changed to leucines) and the brain homing of each mutated peptide-phage was assessed using in vivo play-off method (FIG. 7C). […]"}},
  "note": "Ends that are not written are not given here.",
  "data": [
    {"substance": "CAGALCY [reference compound]", "values": [
      {"measurement": "representation in the brain (HTS reads)", "setting": "mouse brain [1]", "value": "highest representation in the brain"},
      {"measurement": "R1 reads", "setting": "mouse brain [2]; round 1", "value": 3, "unit": "reads"},
      {"measurement": "R3 reads", "setting": "mouse brain [2]; round 3", "value": 880, "unit": "reads"},
      {"measurement": "R3 > R1 (ratio of sequencing reads between round 3 and round 1)", "setting": "mouse brain [2]; round 3 / round 1", "value": 293}
    ]},
    {"substance": "FAM-labelled CVG peptide: 5(6)-carboxyfluorescein-labelled CVGTNCY peptide (not fully specified (N-terminus); cysteine pairing not given here; also: 5(6)-carboxyfluorescein label, position not given here)", "values": [
      {"measurement": "colocalization with activated microglia markers CD68, CD11b and CD206", "setting": "activated microglia", "value": "colocalization with activated microglia markers CD68, CD11b and CD206 cells"}
    ]},
    {"substance": "RRVISRAKLAAAL", "values": [
      {"measurement": "brain homing / brain accumulation of mutated peptide-phage", "setting": "mouse brain [3]", "value": "appear to be necessary for brain homing"}
    ]}
  ]
}
